# Assay results published in patent publication US7317013B2 (priority 2003, dated 2008).
# Where a name gives a salt, the structure may show the parent alone.
# System: not given
# Assay: not given
# Details: not given
row,Compound,melting point
1,N=C(NCCCCC1CCN(CC(O)CO)CC1)NC(=O)c1nc(Cl)c(N)nc1N (centres unmarked),188 to 191 °C
2,N=C(NCCCCC1CCN(CCCO)CC1)NC(=O)c1nc(Cl)c(N)nc1N (as salt: hydrochloride),165 to 167 °C
3,N=C(NCCCCC1CCN(CCN)CC1)NC(=O)c1nc(Cl)c(N)nc1N (as salt: hydrochloride),> 200 °C
4,N=C(NCCCCC1CCN(CCCN)CC1)NC(=O)c1nc(Cl)c(N)nc1N (as salt: hydrochloride),105 to 108 °C
5,N=C(N)NCCCN1CCC(CCCCNC(=N)NC(=O)c2nc(Cl)c(N)nc2N)CC1 (as salt: hydrochloride),176 to 178 °C

# Target: T1, airway epithelial sodium currents (epithelial Na+ channel, ENaC) (Canis lupus familiaris, UniProt A0A8I3MKE6+A0A8I3Q679+Q95165)
# T1 sequence (A0A8I3Q679 1-649): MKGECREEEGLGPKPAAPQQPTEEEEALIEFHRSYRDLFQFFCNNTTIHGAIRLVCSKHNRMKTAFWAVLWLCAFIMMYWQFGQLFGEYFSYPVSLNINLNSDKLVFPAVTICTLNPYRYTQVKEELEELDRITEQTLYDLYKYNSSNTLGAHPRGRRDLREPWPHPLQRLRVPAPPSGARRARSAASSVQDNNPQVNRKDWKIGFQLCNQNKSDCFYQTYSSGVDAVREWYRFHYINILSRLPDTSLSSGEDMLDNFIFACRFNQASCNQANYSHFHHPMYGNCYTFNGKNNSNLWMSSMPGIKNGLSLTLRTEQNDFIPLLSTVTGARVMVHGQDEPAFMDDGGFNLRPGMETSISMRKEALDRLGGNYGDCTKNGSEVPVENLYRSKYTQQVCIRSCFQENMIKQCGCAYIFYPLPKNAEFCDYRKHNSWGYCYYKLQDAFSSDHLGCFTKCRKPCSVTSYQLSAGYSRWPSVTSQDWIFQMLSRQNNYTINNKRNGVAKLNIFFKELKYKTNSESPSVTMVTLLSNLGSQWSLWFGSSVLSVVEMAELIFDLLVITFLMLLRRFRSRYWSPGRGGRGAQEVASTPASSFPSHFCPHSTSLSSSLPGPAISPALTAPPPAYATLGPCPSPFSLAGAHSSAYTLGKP
# T1 sequence (Q95165 1-641): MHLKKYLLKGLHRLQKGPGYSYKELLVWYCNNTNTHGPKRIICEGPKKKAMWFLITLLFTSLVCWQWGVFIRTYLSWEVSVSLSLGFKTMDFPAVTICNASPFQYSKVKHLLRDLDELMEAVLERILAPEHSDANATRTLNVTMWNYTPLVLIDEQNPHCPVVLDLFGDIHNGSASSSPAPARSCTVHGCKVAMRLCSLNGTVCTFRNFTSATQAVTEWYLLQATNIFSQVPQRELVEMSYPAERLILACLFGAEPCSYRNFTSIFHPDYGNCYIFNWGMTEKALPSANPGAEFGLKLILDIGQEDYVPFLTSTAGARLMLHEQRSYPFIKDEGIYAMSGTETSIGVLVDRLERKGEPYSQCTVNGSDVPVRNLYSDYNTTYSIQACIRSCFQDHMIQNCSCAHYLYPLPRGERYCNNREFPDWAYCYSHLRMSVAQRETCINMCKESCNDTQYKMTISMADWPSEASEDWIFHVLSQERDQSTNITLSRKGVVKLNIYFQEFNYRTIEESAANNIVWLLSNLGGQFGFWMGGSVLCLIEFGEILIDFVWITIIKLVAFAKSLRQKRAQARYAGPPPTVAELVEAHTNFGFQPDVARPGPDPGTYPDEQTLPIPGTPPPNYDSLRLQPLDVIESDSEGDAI
# T1 sequence (A0A8I3MKE6 1-646): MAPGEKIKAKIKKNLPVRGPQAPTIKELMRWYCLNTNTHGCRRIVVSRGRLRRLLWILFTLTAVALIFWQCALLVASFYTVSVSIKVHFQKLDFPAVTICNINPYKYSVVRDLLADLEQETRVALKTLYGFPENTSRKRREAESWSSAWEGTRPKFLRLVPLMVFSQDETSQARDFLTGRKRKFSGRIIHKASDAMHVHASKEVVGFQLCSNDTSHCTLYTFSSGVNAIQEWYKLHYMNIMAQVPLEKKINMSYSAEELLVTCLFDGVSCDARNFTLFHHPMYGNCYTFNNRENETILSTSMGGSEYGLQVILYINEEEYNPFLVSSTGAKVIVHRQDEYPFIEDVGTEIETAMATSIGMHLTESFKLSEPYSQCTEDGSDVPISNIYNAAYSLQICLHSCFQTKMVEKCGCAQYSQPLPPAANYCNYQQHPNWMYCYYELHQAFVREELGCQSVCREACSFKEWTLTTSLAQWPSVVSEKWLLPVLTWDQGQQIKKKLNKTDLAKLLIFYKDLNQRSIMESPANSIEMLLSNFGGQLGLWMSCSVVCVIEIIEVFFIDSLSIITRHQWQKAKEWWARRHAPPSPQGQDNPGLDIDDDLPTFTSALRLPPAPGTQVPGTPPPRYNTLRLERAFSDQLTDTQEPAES
# Assay: Sodium channel blocking activity: inhibition of short circuit current (ISC) in airway epithelial monolayers mounted in Ussing chambers
# Assay type: cell-based, canine
# Details: lumenal drug addition, bronchial epithelia, mean ± spread (n in cell)
# Experimental: One assay used to assess mechanism of action and/or potency of the compounds of the present invention involves the determination of lumenal drug inhibition of airway epithelial sodium currents measured under short circuit current (ISC) using airway epithelial monolayers mounted in Ussing chambers. Cells obtained from freshly excised human, dog, sheep or rodent airways are seeded onto porous 0.4 micron Snapwell™ Inserts (CoStar), cultured at air-liquid interface (ALI) conditions in hormonally defined media, and assayed for sodium transport activity (ISC) while bathed in Krebs Bicarbonate Ringer (KBR) in Using chambers. All test drug additions are to the lumenal bath with half-log dose addition protocols (from 1×10^−11 M to 3×10^−5 M), and the cumulative change in ISC (inhibition) recorded. All drugs are prepared in dimethyl sulfoxide as stock solutions at a concentration of 1×10^−2 M and stored at −20° C. Eight preparations are typically run in parallel; two preparations per run incorporate amiloride and/or benzamil as positive controls. After the maximal concentration (5×10^−5 M) is administered, the lumenal bath is exchanged three times with fresh drug-free KBR solution, and the resultant ISC measured after each wash for approximately 5 minutes in duration. Reversibility is defined as the percent return to the baseline value for sodium current after the third wash. All data from the voltage clamps are collected via a computer interface and analyzed off-line.
# Dose-effect relationships for all compounds are considered and analyzed by the Prism 3.0 program. IC50 values, maximal effective concentrations, and reversibility are calculated and compared to amiloride and benzamil as positive controls.
# Statistics: Data were analyzed using SYSTAT for Windows, version 5. Data were analyzed using a two-way repeated ANOVA (to assess overall effects), followed by a paried t-test to identify differences between specific pairs. Significance was accepted when P was less than or equal to 0.05. […] The compounds can be further tested tested for potency in canine bronchial epithelia using the in vitro assay described above. The results for the compounds of the present invention are reported as fold-enhancement values relative to amiloride.
row,Compound,EC50
1,Cl.Cl.Cl.N=C(N)NCCCN1CCC(CCCCNC(=N)NC(=O)c2nc(Cl)c(N)nc2N)CC1 [compound 25795],37 ± 5 nM

# Same assay, conditions: relative potency for PSA 4022 = 100 using EC50 from PSA 4022 in same run
row,Compound,Fold Amiloride** (PSA 4022 = 100)
1,N=C(NCCCCC1CCN(CCO)CC1)NC(=O)c1nc(Cl)c(N)nc1N [compound 25193],8 ± 3 (n = 6)
2,N=C(NCCCCC1CCN(CCCO)CC1)NC(=O)c1nc(Cl)c(N)nc1N [compound 25310],5 ± 2 (n = 8)
3,CC(C)(C)OC(=O)NCCCN1CCC(CCCCNC(=N)NC(=O)c2nc(Cl)c(N)nc2N)CC1 [compound 25452],8 ± 1 (n = 6)
4,N=C(NCCCCC1CCN(CCN)CC1)NC(=O)c1nc(Cl)c(N)nc1N [compound 25455],5 ± 1 (n = 7)
5,N=C(NCCCCC1CCN(CC(O)CO)CC1)NC(=O)c1nc(Cl)c(N)nc1N (centres unmarked) [compound 25456],6 ± 2 (n = 7)
6,N=C(NCCCCC1CCN(CCCN)CC1)NC(=O)c1nc(Cl)c(N)nc1N [compound 25510],3 ± 9 (n = 7)
7,CC(C)(C)OC(=O)N=C(NCCCN1CCC(CCCCNC(=N)NC(=O)c2nc(Cl)c(N)nc2N)CC1)NC(=O)OC(C)(C)C [compound 25569],41 ± 9 (n = 9)
8,Cl.Cl.Cl.N=C(N)NCCCN1CCC(CCCCNC(=N)NC(=O)c2nc(Cl)c(N)nc2N)CC1 [compound 25795],18 ± 7 (n = 4)
